According to patent US7030108B2, “Combating Parkinson's disease-related movement disorder” (Reed Richter, priority 1999, dated 2006):

What was measured:
Type in all cases: in vivo, human
[1] = test system: Parkinsonian tremor (resting and action); assay: Mirtazapine treatment of patients with Parkinsonian tremor (case reports)
Method: A patient with mild Parkinson's Disease for 4 years experienced recurrent tremor that interfered with their ability to hold and deal cards while playing bridge. […] The patient was administered mirtazapine (Remeron®, Organon) at a dosage of 30 mg per day, taken at night for concomitant depression. […] A person with a nine-year history of Parkinson's Disease characterized by bradykinesia and marked right upper extremity resting tremor was treated. […] In May 1998, they were started on mirtazapine (Remeron) at a dosage of 30 mg at night. […] No other medication had been changed.

[2] = test system: levodopa-induced dyskinesias; assay: Mirtazapine treatment of Parkinson's Disease patients with levodopa/dopamine-induced dyskinesias (case reports)
Method: A person with a 15 year history of Parkinson's Disease was treated. […] In August, 1997, the patient was started on mirtazapine (Remeron) at a dosage of 3 mg at night to aid in sleep. […] Throughout the regimen of treatment, the dose of Sinemet remained stable. […] In May 1998, they were started on mirtazapine (Remeron) at a dosage of 30 mg at night. […] No other medication had been changed.

[3] = test system: essential tremor (action tremor); assay: Treatment of patients with essential / action tremor without Parkinson's disease (case reports)
Method: A person with a 20-year history of upper extremity action tremor with a frequency of approximately 8–12 hz. The patient bad no signs or symptoms of Parkinson's disease. […] The patient was started on mirtazapine (Remeron) at a dosage of 30 mg at night.
A person with a lifelong history of action tremor and anxiety but no signs or symptoms of Parkinson's disease was treated. […] Although the tremor always improved with a decrease in the anxiety (using SSRIs and benzodiazepines) the tremor persisted at an unsatisfactory level of severity.
In March, 1998, the patient began medication with a dosage of 15 mg of mirtazapine (Remeron) at night, then on their own volition, increased the administration of the same dose of mirtazapine to twice a day (for a total dose of 30 mg).
Thus, in the patient group involved in the study of Examples 1–6, a total of fifteen individuals was treated with mirtazapine, and of such population, twelve of the patients responded well to treatment with substantial tremor reduction. Of such total of fifteen patients, eight patients had essential tremor, and five of the eight responded. […] Three patients had levodopa-induced dyskinesias and all three responded.

sedation = assay: Sedation / drowsiness side effect in treated patients
Method: Two months later, the patient discontinued the administration of mirtazapine because they were oversleeping. Such oversleeping behavior was not believed to relate to the administration of mirtazapine, however. The patient in fact stopped and restarted the mirtazapine multiple times.
A person with a 15 year history of Parkinson's Disease was treated. […] In August, 1997, the patient was started on mirtazapine (Remeron) at a dosage of 3 mg at night to aid in sleep. The next morning the patient's spouse telephoned excitedly to say that the spouse had only shaken for 15 minutes. This positive development continued making their “on” time more functional.
In almost all cases, the improvement in the tremor behavior came literally overnight, that is, after an initial 30 mg dose taken in the evening before retiring. […] Patients were aware of an improvement immediately. During neurological exam, patients described the types of activities that they could perform before and after administration of mirtazapine (e.g., dealing cards, feeding oneself without spilling, being able to return to exercise classes as a consequence of the improvement experienced, etc.).

tremor = assay: Patient group of Examples 1-6 treated for tremor / movement disorder (all types)
[4] = Example 3: person, 30 mg at night, no other medication changed
[5] = Example 3, mirtazapine restarted
[6] = Example 3, several months later, mirtazapine stopped
[7] = Example 5, 15 mg twice a day (total 30 mg)

CN1CCN2c3ncccc3Cc3ccccc3[C@H]2C1 (racemic) [mirtazapine, 1,2,3,4,10,14b-hexahydro-2-methyl-pyrazino [2,1-a]pyrido [2,3-c]benzazepine]
patient-reported effect on resting and action tremor (holding cards) ([1]; Example 1: person, mild Parkinson's Disease, 30 mg per day at night, on Sinemet, within days of initial administration): they could hold their cards without embarrassment | tremor upon reinitiated administration ([1]; Example 1, mirtazapine reinitiated, Sinemet dose unchanged): again experienced resolution of the tremors | tremor upon cessation of medication ([1]; Example 1, mirtazapine stopped, Sinemet dose unchanged): the tremor (resting and action) returned | patient-reported change in Parkinsonian tremor [1, 4]: rapid improvement | tremor upon restarting medication [1, 5]: both movement disorders again responded | tremor after stopping medication [1, 6]: return of the tremor | Parkinsonian resting tremor patients who responded ([1]; Examples 1-6, of four patients (fourth not yet returned for follow-up)): three | time the patient had shaken ([2]; Example 2: person, violent dyskinesias, 3 mg at night, reported the next morning): 15 min | dopamine-induced dyskinesias after a new dopa agonist (ropirinole) was added ([2]; Example 2, six months later, Sinemet dose stable): no increase in dopamine-induced dyskinesias | patient-reported change in dopamine-induced dyskinesias [2, 4]: rapid improvement | dyskinesia upon restarting medication [2, 5]: both movement disorders again responded | dyskinesia after stopping medication [2, 6]: return of the tremor and dyskinesia | levodopa-induced dyskinesia patients who responded ([2]; Examples 1-6, of three patients): three | postural and kinetic tremors on physical exam ([3]; Example 4: person, 20-year upper extremity action tremor, 30 mg at night): greatly reduced | patient-reported change in action tremor ([3]; Example 5: person, action tremor and anxiety, 15 mg twice a day (total 30 mg)): improvement in the tremor especially when eating or drinking | clinical exam [3, 7]: improved marginally | handwriting [3, 7]: remained a problem | essential tremor patients who responded ([3]; Examples 1-6, of eight patients with essential tremor): five | sedation side effect (sedation; Example 1, patient currently remaining on mirtazapine): without experiencing any sedation side effect | drowsiness during the day (sedation; Example 2, 3 mg at night): never reported that they were drowsy during the day | sedation (sedation; patients of the above-referenced examples): sedation did not occur | patients responding favorably with marked attenuation of tremor activity (tremor; Example 6, of ten additional patients): seven | patients responding well with substantial tremor reduction (tremor; Examples 1-6, of a total of fifteen individuals): twelve | onset of improvement in tremor behavior (tremor; in almost all cases, after an initial 30 mg dose taken in the evening): overnight

CC(C)NCC(O)COc1cccc2ccccc12 (stereo not shown) [propranolol]
response of action tremor ([3]; Example 5 patient, before mirtazapine): seemed to respond to propranolol initially
